Test results reported in US6750248B2, “Methods for preparing an estrogenic preparation and isolated estrogenic compounds from a plant and uses thereof” (National University of Singapore, priority 2001, dated 2004).
Entries after “also recorded” stand apart in the source; their conditions may differ. Read-outs that look alike come from different tables or passages of the source.

Columns and labels:
[1] = mice, intra-peritoneal 32 mg/kg/day for 14 days; cited from earlier work
[2] = system: mouse heart allograft; conditions: cited from earlier work
[3] = molecular target: T1, human estrogen receptor ER-beta (Homo sapiens, UniProt Q92731); test: ER-beta MMTV-ERE-LUC luciferase reporter gene assay in transiently co-transfected Hela cells; format: cell-based; conditions: for ER-alpha versus ER-beta selectivity (in words): compared with ER-alpha
T1 construct: expressed in transfected cells; host or cells: Hela cells, transient co-transfection with lipofectamine
T1 sequence (Q92731 whole entry): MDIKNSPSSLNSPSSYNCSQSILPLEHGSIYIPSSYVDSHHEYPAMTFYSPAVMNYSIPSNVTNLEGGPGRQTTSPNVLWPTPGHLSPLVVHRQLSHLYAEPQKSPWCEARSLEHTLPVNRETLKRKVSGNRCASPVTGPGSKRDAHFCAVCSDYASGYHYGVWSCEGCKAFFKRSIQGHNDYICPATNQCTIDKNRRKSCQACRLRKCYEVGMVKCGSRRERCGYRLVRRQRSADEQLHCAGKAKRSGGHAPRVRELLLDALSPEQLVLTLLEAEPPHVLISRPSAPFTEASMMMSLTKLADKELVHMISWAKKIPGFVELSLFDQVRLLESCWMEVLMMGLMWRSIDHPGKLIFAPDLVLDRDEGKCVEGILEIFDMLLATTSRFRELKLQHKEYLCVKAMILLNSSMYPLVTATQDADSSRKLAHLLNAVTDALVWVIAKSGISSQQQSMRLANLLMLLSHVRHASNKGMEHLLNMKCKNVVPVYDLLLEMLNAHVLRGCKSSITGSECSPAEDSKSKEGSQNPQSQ
Method: (§1) To assay estrogen receptor agonist activity, Hela cells were grown in 24-well microtiter plates and then transiently co-transfected with two plasmids using lipofectamine. The first plasmid comprised DNA encoding human estrogen receptor (either ER-alpha or ER-beta), and the second plasmid comprised an estrogen-driven reporter system comprising: a luciferase reporter gene (LUC) whose transcription is under the control of upstream regulatory elements comprising 4 copies of the vitelogenin estrogen response element (ERE) cloned into the mouse mammary tumor virus (MMTV) promoter (the full name for the reporter system being “MMTV-ERE-LUC”). Cells were exposed to herbal extracts in RPMI 1640 medium, supplemented with 10% charcoal-treated fetal calf serum, 2 mM L-glutamine, 0.1 mM non-essential amino acids and 1 mM sodium pyruvate for 42-48 hours at 37° C. in a 5% carbon dioxide incubator. […] Replicate wells exposed to the solvent in which herbal extracts were dissolved (i.e. ethanol or methanol) were used as negative controls. After the 42-48 hr incubation period, cells were rinsed with phosphate buffered saline(PBS), lysis buffer (Promega Corp) was added, and cell lysates collected for measurement of luciferase activity with a luminometer. […] All data points are in triplicate.

[4] = molecular target: T2, human estrogen receptor ER-alpha (Homo sapiens, UniProt P03372); test: ER-alpha MMTV-ERE-LUC luciferase reporter gene assay in transiently co-transfected Hela cells; format: cell-based
T2 construct: expressed in transfected cells; host or cells: Hela cells, transient co-transfection with lipofectamine
T2 sequence (P03372 1-595): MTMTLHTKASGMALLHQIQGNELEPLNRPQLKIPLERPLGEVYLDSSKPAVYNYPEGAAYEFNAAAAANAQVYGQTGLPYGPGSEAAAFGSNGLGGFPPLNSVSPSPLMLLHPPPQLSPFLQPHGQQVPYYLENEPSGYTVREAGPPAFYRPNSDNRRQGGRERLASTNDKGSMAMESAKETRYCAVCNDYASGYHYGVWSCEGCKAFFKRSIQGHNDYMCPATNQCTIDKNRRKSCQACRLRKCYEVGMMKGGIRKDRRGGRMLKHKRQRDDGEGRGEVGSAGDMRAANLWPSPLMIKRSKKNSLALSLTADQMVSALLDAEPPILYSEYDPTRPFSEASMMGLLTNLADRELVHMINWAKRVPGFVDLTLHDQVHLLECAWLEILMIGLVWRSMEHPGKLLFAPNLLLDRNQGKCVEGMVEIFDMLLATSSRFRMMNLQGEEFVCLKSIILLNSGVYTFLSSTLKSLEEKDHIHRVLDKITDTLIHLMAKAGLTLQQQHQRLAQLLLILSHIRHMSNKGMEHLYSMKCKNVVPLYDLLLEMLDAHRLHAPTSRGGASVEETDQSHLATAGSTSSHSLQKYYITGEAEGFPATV
Method: as §1

[5] = system: human estrogen receptor (either ER-alpha or ER-beta); test: Estrogen receptor bioassay as in Example 1, ER subtype not stated; format: cell-based; conditions: under the conditions described herein
Method: as §1

[6] = system: estrogen receptors; conditions: cited from earlier work

ER-beta agonist activity (in words) [3]	Estrogenic activity (fold increased over vehicle), ER-beta ([3]; dose 0.05 μg/ml) [fold]	Estrogenic activity (fold increased over vehicle), ER-beta ([3]; dose 0.5 μg/ml) [fold]	Estrogenic activity (fold increased over vehicle), ER-beta ([3]; dose 5 μg/ml) [fold]	ER-alpha agonist activity (in words) [4]	Estrogenic activity (fold increased over vehicle), ER-alpha ([4]; dose 0.05 μg/ml) [fold]	Estrogenic activity (fold increased over vehicle), ER-alpha ([4]; dose 0.5 μg/ml) [fold]	Estrogenic activity (fold increased over vehicle), ER-alpha ([4]; dose 5 μg/ml) [fold]	SMILES	Relative potency of estrogenic activity compared to genistein [6] [%]	also measured
can activate both ER-alpha and ER-beta	2.598	18.763	13.289	can activate both ER-alpha and ER-beta	4.940	9.089	11.618	CC(C)=CCc1cc(-c2cc(=O)c3c(O)cc(O)cc3o2)ccc1O [Compound I, yinyanghuo D]		ER-alpha versus ER-beta selectivity (in words) ([3]; listed as AF6): activate both ER-alpha and ER-beta equally; also recorded: estrogen receptor agonist activity on both ER-alpha and ER-beta; ER-beta agonist activity (in words) ([3]; listed as AF6): strong ER-alpha and ER-beta activity; ER-alpha agonist activity (in words) ([4]; listed as AF6): strong ER-alpha and ER-beta activity
activated ER-beta strongly	1.514	6.093	23.132	very weak ER alpha activity	1.031	2.357	2.694	CC(C)=CCc1cc(-c2cc(=O)c3c(O)cc(O)cc3o2)cc2c1OC(C(C)(C)O)C2O (stereo not drawn) [Compound III]		Concentration with ER-beta activity equivalent to estradiol at 1 nM [3]: 15 ng/mL; Factor by which ER-beta is activated more strongly than ER-alpha ([3]; at 5 μg/ml): about nine-fold; ER-alpha versus ER-beta selectivity (in words) [3]: activates ER-beta more strongly than it activates ER-alpha; also recorded: shows specificity for ER-beta; ER-alpha versus ER-beta selectivity (in words) ([3]; listed as AF1): stronger than that observed for ER-alpha estrogen receptors; ER-beta stimulatory activity compared with estradiol (in words) ([3]; dose-dependent): stronger than that observed for estradiol; ER-alpha activity as % of that of estradiol [4]: 26%

The next lines start with the compound.

SMILES	ER-beta agonist activity (in words) [3]	Estrogenic activity (fold increased over vehicle), ER-beta ([3]; dose 0.05 μg/ml) [fold]	Estrogenic activity (fold increased over vehicle), ER-beta ([3]; dose 0.5 μg/ml) [fold]	Estrogenic activity (fold increased over vehicle), ER-beta ([3]; dose 5 μg/ml) [fold]	ER-alpha agonist activity (in words) [4]	Estrogenic activity (fold increased over vehicle), ER-alpha ([4]; dose 0.05 μg/ml) [fold]	Estrogenic activity (fold increased over vehicle), ER-alpha ([4]; dose 0.5 μg/ml) [fold]	Estrogenic activity (fold increased over vehicle), ER-alpha ([4]; dose 5 μg/ml) [fold]	Relative potency of estrogenic activity compared to genistein [6] [%]	also measured
COc1ccc(-c2oc3c(CC=C(C)C)c(O)cc(O)c3c(=O)c2O[C@@H]2O[C@@H](C)[C@H](O)[C@@H](O)[C@H]2O)cc1 [Baihuoside I]										Side effects [1]: no side effects; Mouse heart allograft survival [2]: effective at prolonging mouse heart allograft survival
C=C(C)C(O)Cc1cc(-c2cc(=O)c3c(O)cc(O)cc3o2)cc(CC(O)C(=C)C)c1O (stereo not drawn) [Compound II]										Estrogenic activity (in words) [5]: no detectable estrogenic activity
O=c1cc(-c2ccc(O)c(O)c2)oc2cc(O)cc(O)c12 [Luteolin]									58	
O=c1c(O)c(-c2ccc(O)c(O)c2)oc2cc(O)cc(O)c12 [quercetin]									10	
